US10000450B2, “N,N-substituted 3-aminopyrrolidine compounds useful as monoamines reuptake inhibitors” (OTSUKA PHARMACEUTICAL CO., LTD., priority 2005, dated 2018)
Where a name gives a salt, the structure may show the parent alone.

How the values were obtained:
Assay type in all cases: biochemical
[1] = biological target: T1, Norepinephrine (NE) uptake into rat brain synaptosome (hippocampus) (Rattus norvegicus, UniProt Q63380); assay: Inhibitory activity on norepinephrine (NE) uptake into rat brain synaptosome; conditions: tritium-labeled NE 12 nM uptake, 10 min at 37° C., read-out: 50% inhibitory concentration
T1 construct: used as crude synaptosome fraction; from tissue; host or cells: rat (male Wistar) hippocampus, crude synaptosome fraction
T1 sequence (Q63380 1-617): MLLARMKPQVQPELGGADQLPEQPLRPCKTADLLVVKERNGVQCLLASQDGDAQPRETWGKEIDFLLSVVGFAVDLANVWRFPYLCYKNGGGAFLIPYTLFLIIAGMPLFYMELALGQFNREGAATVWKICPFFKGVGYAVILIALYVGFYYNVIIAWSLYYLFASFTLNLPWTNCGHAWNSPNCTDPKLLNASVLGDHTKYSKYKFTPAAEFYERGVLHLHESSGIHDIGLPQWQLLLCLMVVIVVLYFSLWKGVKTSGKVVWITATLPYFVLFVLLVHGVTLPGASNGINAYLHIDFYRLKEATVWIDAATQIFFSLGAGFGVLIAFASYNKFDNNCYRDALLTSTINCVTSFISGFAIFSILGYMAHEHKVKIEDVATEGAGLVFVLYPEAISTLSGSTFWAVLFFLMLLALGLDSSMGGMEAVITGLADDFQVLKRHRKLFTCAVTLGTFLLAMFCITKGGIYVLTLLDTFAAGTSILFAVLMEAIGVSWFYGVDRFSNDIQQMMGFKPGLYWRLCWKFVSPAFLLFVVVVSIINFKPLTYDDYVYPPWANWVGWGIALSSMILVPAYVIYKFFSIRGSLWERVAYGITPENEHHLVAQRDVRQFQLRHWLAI
Description: Pharmacological Test 2 Evaluation of Inhibitory Activity of Test Compound on Norepinephrine (NE) Uptake into Rat Brain Synaptosome
(§1) Male Wistar rats were decapitated and the brains were removed and the hippocampi were dissected. The separated hippocampi were homogenized in 20 volumes as weight of 0.32 M sucrose solution by a Potter-type homogenizer. The homogenate was centrifuged at 1000 g at 4° C. for 10 minutes, and the supernatant was then centrifuged at 20000 g at 4° C. for 20 minutes. The pellet was resuspended in incubation buffer (20 mM HEPES buffer (pH 7.4)) containing 10 mM glucose, 145 mM sodium chloride, 4.5 mM potassium chloride, 1.2 mM magnesium chloride, and 1.5 mM calcium chloride) and used as crude synaptosome fraction.
The uptake reaction mixture was suspended in final volume of 200 μl containing pargyline (final concentration of 10 μM) and sodium ascorbate (final concentration of 0.2 mg/ml) in each well of 96-well-round-bottom-plate.
(§2) Solvent, unlabeled NE, and serial diluted test compounds were added to each well, and synaptosome fraction of 1/10 volume of the final volume were added. After 10 minutes preincubation at 37° C., the uptake was initiated by the addition of tritium-labeled NE solution (final concentration of 12 nM) at 37° C. The uptake was stopped after 10 minutes by filtration under vacuum through a 96-well glass fiber filter plate. After washing the filter with cold physiological saline and drying up, Microscint-0 (Perkin-Elmer) was added, and remained radioactivity on the filter was measured.
(§3) The total uptake activity with only solvent was determined as 100%, and the nonspecific uptake activity with unlabeled NE (final concentration of 10 μM) was determined as 0%. The 50% inhibitory concentrations were calculated based on the concentrations of the test compounds and their inhibitory activities.

[2] = biological target: T2, Dopamine (DA) uptake into rat brain synaptosome (striatum) (Rattus norvegicus, UniProt P23977); assay: Inhibitory activity on dopamine (DA) uptake into rat brain synaptosome; conditions: tritium labeled DA 2 nM uptake, 10 min at 37° C., read-out: 50% inhibitory concentration
T2 construct: used as crude synaptosome fraction; from tissue; host or cells: rat (male Wistar) striatum, crude synaptosome fraction
T2 sequence (P23977 whole entry): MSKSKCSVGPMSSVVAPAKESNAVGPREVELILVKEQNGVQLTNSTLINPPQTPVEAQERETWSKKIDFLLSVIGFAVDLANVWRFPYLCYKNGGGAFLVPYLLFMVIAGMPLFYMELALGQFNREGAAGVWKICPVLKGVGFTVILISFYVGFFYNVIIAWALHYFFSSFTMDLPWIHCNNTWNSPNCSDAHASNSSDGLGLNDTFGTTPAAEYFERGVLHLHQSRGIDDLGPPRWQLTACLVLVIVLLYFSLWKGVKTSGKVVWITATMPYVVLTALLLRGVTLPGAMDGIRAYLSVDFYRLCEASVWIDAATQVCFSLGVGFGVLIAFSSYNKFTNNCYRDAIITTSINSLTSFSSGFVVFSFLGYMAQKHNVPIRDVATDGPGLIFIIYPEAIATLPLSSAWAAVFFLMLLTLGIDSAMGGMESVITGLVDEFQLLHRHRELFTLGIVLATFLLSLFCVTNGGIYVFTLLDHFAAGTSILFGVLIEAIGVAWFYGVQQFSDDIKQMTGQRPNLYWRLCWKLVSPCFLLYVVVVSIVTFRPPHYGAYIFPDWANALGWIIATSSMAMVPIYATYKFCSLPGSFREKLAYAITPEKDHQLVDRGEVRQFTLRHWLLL
Description: Pharmacological Test 3 Evaluation of Inhibitory Activity of Test Compound on Dopamine (DA) into Rat Brain Synaptosome
as §1, with “striata” for “hippocampi”
(§4) The uptake reaction mixture was suspended in a final volume of 200 μl containing pargyline (final concentration of 10 μM) and sodium ascorbate (final concentration of 0.2 mg/ml) in each well of 96-well-round-bottom-plate.
as §2, with “unlabeled DA,” for “unlabeled NE,”, “added in” for “added to”, “After 10-min” for “After 10 minutes”, “of tritium labeled DA” for “of tritium-labeled NE”, “of 2” for “of 12”, “was added” for “was added,”
as §3, with “The” for “The total”, “DA” for “NE”

[3] = biological target: T3, Serotonin (5-HT) uptake into rat brain synaptosome (frontal cortex) (Rattus norvegicus, UniProt P31652); assay: Inhibitory activity on serotonin (5-HT) uptake into rat brain synaptosome; conditions: tritium-labeled 5-HT 8 nM uptake, 10 min at 37° C., read-out: 50% inhibittory concentration
T3 construct: used as crude synaptosome fractions; from tissue; host or cells: rat (male Wistar) frontal cortex, crude synaptosome fraction
T3 sequence (P31652 whole entry): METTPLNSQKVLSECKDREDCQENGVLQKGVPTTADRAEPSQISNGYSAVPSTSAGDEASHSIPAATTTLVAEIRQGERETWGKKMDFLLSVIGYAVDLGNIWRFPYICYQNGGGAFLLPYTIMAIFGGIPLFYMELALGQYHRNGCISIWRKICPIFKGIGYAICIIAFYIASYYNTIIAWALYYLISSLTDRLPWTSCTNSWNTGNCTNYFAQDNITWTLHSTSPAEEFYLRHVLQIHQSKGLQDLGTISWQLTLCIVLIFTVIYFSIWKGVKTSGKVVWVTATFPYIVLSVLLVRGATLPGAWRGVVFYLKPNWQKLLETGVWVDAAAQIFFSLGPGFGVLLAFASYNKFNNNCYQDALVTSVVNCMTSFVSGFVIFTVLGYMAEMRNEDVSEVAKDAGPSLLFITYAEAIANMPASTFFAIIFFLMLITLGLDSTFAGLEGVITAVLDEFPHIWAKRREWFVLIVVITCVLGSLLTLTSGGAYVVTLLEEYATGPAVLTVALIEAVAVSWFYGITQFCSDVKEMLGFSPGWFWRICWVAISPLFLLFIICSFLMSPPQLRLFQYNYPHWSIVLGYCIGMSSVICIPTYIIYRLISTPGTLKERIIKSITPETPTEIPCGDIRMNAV
Description: Pharmacological Test 1 Evaluation of Inhibitory Activity of Test Compound on Serotonin (5-HT) Uptake into Rat Brain Synaptosome
as §1, with “frontal cortices” for “hippocampi”, “fractions.” for “fraction.”
as §4
Solvent, unlabeled 5-HT, and serial diluted test compounds were added in each well, and synaptosome fraction of 1/10 volume of the final volume were added. After a 10 min preincubation at 37° C., the uptake was initiated by the addition of tritium-labeled 5-HT solution (final concentration of 8 nM) at 37° C. The uptake was stopped after 10 minutes by filtration under vacuum through a 96-well glass fiber filter plate. After washing the filter with cold physiological saline and drying up, Microscint-O (Perkin-Elmer) was added, and remained radioactivity on the filter was measured.
as §3, with “5-HT” for “NE”

Row | Structure (SMILES) | IC50 [1] [nM] | IC50 [2] [nM] | IC50 [3] [nM]
1 | Cc1ccc(N(c2ccccc2)[C@H]2CCNC2)cc1 [Example 22] | 2.2 |  | 
2 | c1cncc(N(c2ccc3ccsc3c2)[C@H]2CCNC2)c1 [Example 289] | 0.1 | 30.6 | 
3 | CCN1CCN(c2ccc(N(c3ccc(F)c(Cl)c3)[C@H]3CCNC3)nc2)CC1 [Example 201] |  | 4.3 | 
4 | O=C1CCc2ccc(N(c3ccc(F)cc3)[C@H]3CCNC3)cc2N1 [Example 917] |  |  | 0.7
5 | Fc1ccc(N(c2nccs2)[C@H]2CCNC2)cc1Cl [Example 131] | 0.2 |  | 0.6
6 | c1cc(N(c2ccc3ccsc3c2)[C@H]2CCNC2)cs1 [Example 1001] | 0.1 | 16.4 | 
7 | Clc1ccc(N(c2cnccn2)[C@H]2CCNC2)cc1Cl [Example 963] | 0.8 | 47.1 | 1
8 | Fc1ccc(N(c2ccc(Cl)c(Cl)c2)[C@H]2CCNC2)nc1 [Example 961] | 0.7 | 9.6 | 2.8
9 | Fc1cncc(N(c2ccc3sccc3c2)[C@H]2CCNC2)c1 [Example 951] | 0.5 | 29.8 | 
10 | Fc1ccc(N(c2ccc(N3CCNCC3)cn2)[C@H]2CCNC2)cc1Cl [Example 200] |  | 3.8 | 
11 | Fc1ccc(N(c2ccsc2)[C@H]2CCNC2)cc1Cl [Example 278] | 0.3 | 34.7 | 2.2
12 | N#Cc1ccc(N(c2ccc(F)c(Cl)c2)[C@H]2CCNC2)cc1 [Example 73] |  | 9 | 0.6
13 | c1ccc(N(c2ccc3cnsc3c2)[C@H]2CCNC2)cc1 [Example 900] | 0.6 |  | 1.5
14 | N#Cc1ccc(N(c2ccc(Cl)c(Cl)c2)[C@H]2CCNC2)cn1 [Example 270] |  | 8.2 | 
15 | Cc1cc(N(c2ccccc2)[C@H]2CCNC2)ccc1F [Example 46] |  | 9.3 | 
16 | c1cncc(N(c2ccc3sccc3c2)[C@H]2CCNC2)c1 [Example 294] |  | 24 | 
17 | c1cc2ccc(N(c3ccc4ccsc4c3)[C@H]3CCNC3)cc2s1 [Example 300] |  | 9.6 | 

Row | Structure (SMILES) | IC50 [1] [nM] | IC50 [2] [nM] | IC50 [3] [nM]
18 | Clc1ccc(N(c2ccccn2)[C@H]2CCNC2)cc1Cl [Example 188] | 0.1 |  | 
19 | Clc1ccc(N(c2ccncc2)[C@H]2CCNC2)cc1Cl [Example 273] |  | 32.9 | 
20 | Fc1ccc(N(C2CCCC2)[C@H]2CCNC2)cc1Cl [Example 306] | 0.8 |  | 1.4
21 | Fc1ccc(N(c2ccc3ccsc3c2)[C@H]2CCNC2)cc1 [Example 114] | 0.4 | 32.5 | 0.8
22 | Fc1ccc(N(CCCCOc2ccccn2)[C@H]2CCNC2)cc1Cl [Example 5, (3-chloro-4-fluorophenyl)-[4-(pyridin-2-yloxy)butyl]-(S)-pyrrolidin-3-ylamine difumarate] |  |  | 1.6
23 | c1ccc(N(c2ccc3sccc3n2)[C@H]2CCNC2)cc1 [Example 934] |  |  | 1.8
24 | Clc1ccc(N(c2cccnc2)[C@H]2CCNC2)cc1Cl [Example 256] | 0.1 |  | 
25 | Fc1ccc(N(c2ccccc2)[C@H]2CCNC2)cc1 [Example 20] | 0.8 |  | 
26 | Fc1ccc(N(c2ccc3cnsc3c2)[C@H]2CCNC2)cc1 [Example 901] |  |  | 0.7
27 | c1ccc2cc(N(c3ccsc3)[C@H]3CCNC3)ccc2c1 [Example 1000] | 0.4 |  | 
28 | Clc1ccc(N(c2cccnc2)[C@H]2CCNC2)cc1Cl [Example 242] | 0.2 |  | 
29 | c1cc(N(c2ccc3sccc3c2)[C@H]2CCNC2)cs1 [Example 1002] | 0.1 | 32.9 | 
30 | Cc1cc2ccc(N(c3ccccc3)[C@H]3CCNC3)cc2s1 [Example 903] | 0.7 |  | 1.2
31 | c1cc2cc(N(c3ccc4sccc4c3)[C@H]3CCNC3)ccc2s1 [Example 299] |  | 48.6 | 
32 | Fc1ccc(N(c2ccc3ccsc3n2)[C@H]2CCNC2)cc1 [Example 899] |  |  | 0.7
33 | c1ccc(N(c2ccc3sccc3c2)[C@H]2CCNC2)cc1 [Example 116] | 0.1 | 8.9 | 
34 | CSc1ccc(N(c2ccccc2)[C@H]2CCNC2)cc1 [Example 19] |  |  | 0.7

Other lines, results leading:

Row | IC50 [1] [nM] | IC50 [2] [nM] | IC50 [3] [nM] | Structure (SMILES)
35 |  | 30 |  | N#Cc1ccc(-c2cncc(N(c3ccc(F)c(Cl)c3)[C@H]3CCNC3)c2)cc1 [Example 272]
36 |  |  | 0.8 | Cc1cc(N(c2cnc3ccccc3c2)[C@H]2CCNC2)ccc1F [Example 151]
37 | 0.3 | 9.4 | 2.6 | Fc1cncc(N(c2ccc(F)c(Cl)c2)[C@H]2CCNC2)c1 [Example 894]
38 | 0.4 | 8.7 |  | Fc1ccc(N(c2ccccc2)[C@H]2CCNC2)cc1Cl [Example 44]
39 |  | 30.2 | 1 | Cn1c(=O)ccc2cc(N(c3ccc(F)c(Cl)c3)[C@H]3CCNC3)ccc21 [Example 912]
40 | 0.2 | 9.2 | 0.8 | Fc1ccc(N(c2ccccn2)[C@H]2CCNC2)cc1Cl [Example 154]
41 | 0.3 |  |  | Cc1ccc(N(c2cccc(F)c2)[C@H]2CCNC2)cc1Cl [Example 98]
42 |  |  | 1.2 | Fc1ccc(N(c2cnc3ccccc3c2)[C@H]2CCNC2)cc1Cl [Example 149]
43 | 0.5 |  |  | Fc1ccc(N(c2ccc(Cl)nc2)[C@H]2CCNC2)cc1Cl [Example 244]
44 |  | 6.5 | 0.8 | N#Cc1ccc(N(c2ccc(F)c(Cl)c2)[C@H]2CCNC2)cn1 [Example 268]
45 | 0.3 | 5.8 | 0.6 | Fc1ccc(N(c2ccc3ncsc3c2)[C@H]2CCNC2)cc1Cl [Example 989]
46 | 0.8 | 6.5 | 0.8 | Fc1ccc(N(c2ccc3ncccc3c2)[C@H]2CCNC2)cc1Cl [Example 913]
47 | 1 | 6.8 | 0.8 | Fc1ccc(N(c2ccc3cnsc3c2)[C@H]2CCNC2)cc1Cl [Example 930]
48 | 0.8 | 26 |  | Cn1ncc2ccc(N(c3ccc(F)c(Cl)c3)[C@H]3CCNC3)cc21 [Example 990]
49 | 0.6 |  |  | Clc1ccc(N(c2ccccc2)C2CCNC2)cc1Cl (stereo not drawn) [Example 1, (3,4-dichlorophenyl)phenylpyrrolidin-3-ylamine dihydrochloride]
50 | 0.9 |  | 2.5 | [O-][n+]1cccc(N(c2ccc(F)c(Cl)c2)[C@H]2CCNC2)c1 [Example 896]
51 | 0.2 |  |  | COc1cccc(N(c2ccc(F)c(Cl)c2)[C@H]2CCNC2)n1 [Example 223]
